Results on 18 molecules are retold here after US9884063B2, “Amido-substituted azole compounds” (Bayer Pharma Aktiengesellschaft, priority 2014, dated 2018).

Experiment [1] concerns HEK293 FOP control reporter cell line. The experiment can be described thus: HEK293 FOP Assay (FOP control vector luciferase reporter). Format: cell-based. To be noted: Homo sapiens. In short, it runs like this: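 Stable HEK293 line carrying the FOP vector (randomized, non-functional TCF sites; Geneticin-selected) was run in parallel with the TOP line. Cells were plated 24 h ahead at 10000/well and given recombinant human Wnt-3a at 2500–5 ng/ml. Compounds were tested at 50 μM–15 nM (3.16-fold steps) in CAFTY buffer, pH 7.4, with 2 mM Ca2+ and 0.01% BSA.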

The next experiment concerns the target T1, TNKS1 (Homo sapiens, UniProt O95271).
T1 sequence (O95271 1-1327): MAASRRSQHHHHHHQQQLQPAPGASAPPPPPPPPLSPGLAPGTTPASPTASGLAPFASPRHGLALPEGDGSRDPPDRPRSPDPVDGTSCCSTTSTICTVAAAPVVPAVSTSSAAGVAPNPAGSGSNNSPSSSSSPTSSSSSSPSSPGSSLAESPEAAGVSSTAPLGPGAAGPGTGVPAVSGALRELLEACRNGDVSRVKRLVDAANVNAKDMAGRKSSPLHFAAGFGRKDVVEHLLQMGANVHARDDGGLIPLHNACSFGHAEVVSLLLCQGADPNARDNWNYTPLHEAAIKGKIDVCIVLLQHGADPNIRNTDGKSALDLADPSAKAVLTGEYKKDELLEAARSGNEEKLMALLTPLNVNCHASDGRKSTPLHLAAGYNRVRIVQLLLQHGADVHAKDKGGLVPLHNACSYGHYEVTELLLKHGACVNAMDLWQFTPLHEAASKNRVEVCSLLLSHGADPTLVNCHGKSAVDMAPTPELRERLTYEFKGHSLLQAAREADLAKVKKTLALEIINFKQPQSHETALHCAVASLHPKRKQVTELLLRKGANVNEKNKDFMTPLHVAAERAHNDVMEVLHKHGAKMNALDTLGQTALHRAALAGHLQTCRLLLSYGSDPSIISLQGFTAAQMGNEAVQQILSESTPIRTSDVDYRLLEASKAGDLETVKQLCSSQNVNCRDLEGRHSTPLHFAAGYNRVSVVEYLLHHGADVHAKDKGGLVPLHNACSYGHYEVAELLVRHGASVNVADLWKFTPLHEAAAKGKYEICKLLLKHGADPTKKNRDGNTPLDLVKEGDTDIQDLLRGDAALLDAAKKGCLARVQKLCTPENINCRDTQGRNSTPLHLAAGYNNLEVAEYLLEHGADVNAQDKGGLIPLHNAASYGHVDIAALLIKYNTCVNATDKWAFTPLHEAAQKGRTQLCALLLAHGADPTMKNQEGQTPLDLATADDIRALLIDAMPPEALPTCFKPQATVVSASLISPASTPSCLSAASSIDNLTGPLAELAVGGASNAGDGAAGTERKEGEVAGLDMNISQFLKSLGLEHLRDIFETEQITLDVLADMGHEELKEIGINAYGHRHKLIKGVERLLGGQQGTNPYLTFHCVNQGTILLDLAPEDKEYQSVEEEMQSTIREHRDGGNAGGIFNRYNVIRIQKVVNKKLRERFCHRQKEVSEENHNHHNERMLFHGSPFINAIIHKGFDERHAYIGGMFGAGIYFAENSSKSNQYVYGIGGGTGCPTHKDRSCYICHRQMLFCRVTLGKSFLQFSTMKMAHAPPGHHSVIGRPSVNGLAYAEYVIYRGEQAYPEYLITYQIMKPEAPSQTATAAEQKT
The experiment can be described thus: TNKS1 Assay 1 (TNKS1 Histone Ribosylation Assay Kit, biotin-labeled NAD+). Format: biochemical. To be noted: chemiluminescent readout, 384 well. On the procedure:
The potency of the compounds according to the invention was assessed by applying an in vitro inhibition assay. The TNKS1 catalyzed NAD^+-dependent ribosylation of a suitable protein substrate was detected using a commercially available biotin/streptavidin binding based assay format [TNKS1 Histone Ribosylation Assay Kit (Biotin-labeled NAD+), Catalog #80579; BPS Bioscience, San Diego, USA]. Here, the incorporation of a biotin-labeled NAD+ during the TNKS1 catalyzed ribosylation reaction was detected with a streptavidin-HRP coupled chemi-luminescent readout. The intensity of the readout signal is proportional to the incorporated NAD^+. Inhibition of TNKS1 leads to a decreased incorporation of NAD^+ and consequently to a lower readout signal intensity. The concentration of a test compound which inhibits the enzyme activity by 50% (corresponds to half of the normed readout signal intensity) is reported as IC50.
The assay was conducted in a 384 well MTP format according to the manufacturer's protocol [bpsbioscience.com/poly-adp-ribose-polymerase/assay-kit/tnks1-histone-ribosylation-assay-kit-biotin-labeled-nad-80579 referencing: Brown, J. A., Marala, R. B. J. Pharmacol. Toxicol. Methods 2002 47:137-41] and using a BMG Pherastar MTP reader [BMG-Labtech, Offenburg, Germany].

[2] abbreviates: HEK293 FOP control reporter cell line, 16 hours incubation, compound dilution series 50 μM to 15 nM.
Setting [3] is: HEK293 FOP control reporter cells, 16 hours, luciferase, dilution series from 50 μM.

Bounds are passed on as bounds.

`CNC(=O)c1nc[nH]c1C(=O)Nc1ccc(NC(=O)c2ccc(F)cc2Cl)c(C)c1` [Example 5, N^5-{4-[(2-chloro-4-fluorobenzoyl)amino]-3-methylphenyl}-N^4-methyl-1H-imidazole-4,5-dicarboxamide]: the half-maximal inhibitory concentration (IC50) – broadly, the concentration needed to halve the response being measured – is 11000 nM in experiment [1] (setting [2]), 11000 nM in experiment [1] (setting [3]), 320 nM against TNKS1 (Table 1) and 320 nM on TNKS1 (first table).
For `CNC(=O)c1nc[nH]c1C(=O)Nc1ccc(NC(=O)c2ccncc2Cl)cc1` [Example 6, N^5-{4-[(3-chloroisonicotinoyl)amino]phenyl}-N^4-methyl-1H-imidazole-4,5-dicarboxamide], the IC50 in experiment [1] (setting [3]) is at least 50000 nM; on TNKS1 (Table 1), 50 nM; at TNKS1 (first table), 50 nM.
With `CCC(C)NC(=O)c1ncoc1C(=O)Nc1ccc(NC(=O)c2ccc(F)cc2Cl)cc1` (stereo not shown) [Example 7, N^4-sec-butyl-N^5-{4-[(2-chloro-4-fluorobenzoyl)amino]phenyl}-1,3-oxazole-4,5-dicarboxamide], the IC50 in experiment [1] (setting [2]) is 45000 nM; in experiment [1] (setting [3]), 45000 nM; against TNKS1 (Table 1), 1300 nM; against TNKS1 (first table) it was 1300 nM.
In the case of `CC(NC(=O)c1ncoc1C(=O)Nc1ccc(NC(=O)c2ccc(F)cc2Cl)cc1)c1ccccc1` (stereo not shown) [Example 8, N^5-{4-[(2-chloro-4-fluorobenzoyl)amino]phenyl}-N^4-(1-phenylethyl)-1,3-oxazole-4,5-dicarboxamide], the IC50 in experiment [1] (setting [3]) was at least 50000 nM; on TNKS1 (Table 1) it was 2270 nM; against TNKS1 (first table), 2270 nM.
Turning to `CNC(=O)c1nc[nH]c1C(=O)Nc1ccc(NC(=O)c2ccc(Cl)cc2Cl)cc1` [Example 9, N^5-{4-[(2,4-dichlorobenzoyl)amino]phenyl}-N^4-methyl-1H-imidazole-4,5-dicarboxamide], the IC50 in experiment [1] (setting [2]) was 31500 nM; in experiment [1] (setting [3]), 40000 nM; on TNKS1 (Table 1), 110 nM; against TNKS1 (first table), 110 nM.
Consider `CC(C)NC(=O)c1nc[nH]c1C(=O)Nc1ccc(NC(=O)c2ccc(F)cc2Cl)cc1` [Example 10, N^5-{4-[(2-chloro-4-fluorobenzoyl)amino]phenyl}-N^4-isopropyl-1H-imidazole-4,5-dicarboxamide], for which the IC50 in experiment [1] (setting [2]) was 46000 nM; in experiment [1] (setting [3]), at least 50000 nM; at TNKS1 (Table 1) it was 310 nM; on TNKS1 (first table), 310 nM.
On to `CNC(=O)c1ncoc1C(=O)Nc1ccc(NC(=O)c2ccc(F)cc2Cl)cc1` [Example 11, N^5-{4-[(2-chloro-4-fluorobenzoyl)amino]phenyl}-N^4-methyl-1,3-oxazole-4,5-dicarboxamide], for which the IC50 in experiment [1] (setting [3]) is at least 50000 nM; against TNKS1 (Table 1) it was 220 nM.
Turning to `CNC(=O)c1nc[nH]c1C(=O)Nc1ccc(NC(=O)c2ccc(F)cc2Cl)cc1` [Example 12, N^5-{4-[(2-chloro-4-fluorobenzoyl)amino]phenyl}-N^4-methyl-1H-imidazole-4,5-dicarboxamide], the values for the IC50 (in experiment [1] (setting [3]); against TNKS1 (Table 1); against TNKS1 (first table)) were at least 50000 nM, 20 nM and 20 nM, respectively.
Regarding `COC(=O)c1ncoc1C(=O)Nc1ccc(NC(=O)c2ccc(F)cc2Cl)cc1` [Example 14, Methyl 5-({4-[(2-chloro-4-fluorobenzoyl)amino]phenyl}carbamoyl)-1,3-oxazole-4-carboxylate], the figures for the half-maximal inhibitory concentration (IC50) (in experiment [1] (setting [3]); against TNKS1 (Table 1); on TNKS1 (first table)) were at least 50000 nM, 420 nM and 420 nM, respectively.
Consider `CC(C)NC(=O)c1ncoc1C(=O)Nc1ccc(NC(=O)c2ccc(F)cc2Cl)cc1` [Example 15, N^5-{4-[(2-chloro-4-fluorobenzoyl)amino]phenyl}-N^4-isopropyl-1,3-oxazole-4,5-dicarboxamide], for which the half-maximal inhibitory concentration (IC50) in experiment [1] (setting [3]) was at least 50000 nM; on TNKS1 (Table 1), 900 nM; at TNKS1 (first table) it was 900 nM.
`CNC(=O)c1nc[nH]c1C(=O)Nc1ccc(NC(=O)c2ccc(F)cc2Cl)nc1` [Example 16, N^5-{6-[(2-chloro-4-fluorobenzoyl)amino]pyridin-3-yl}-N^4-methyl-1H-imidazole-4,5-dicarboxamide]: the IC50 was at least 50000 nM in experiment [1] (setting [3]), 70 nM against TNKS1 (Table 1) and 70 nM on TNKS1 (first table).
For the molecule `CNC(=O)c1nc[nH]c1C(=O)Nc1ccc(NC(=O)c2c(-c3ccccc3)nn(C)c2Cl)cc1` [Example 17, N^5-(4-{[(5-chloro-1-methyl-3-phenyl-1H-pyrazol-4-yl)carbonyl]amino}phenyl)-N^4-methyl-1H-imidazole-4,5-dicarboxamide], the IC50 in experiment [1] (setting [2]) is 26000 nM; in experiment [1] (setting [3]), 26000 nM; on TNKS1 (Table 1), above 100000 nM; against TNKS1 (first table), at least 100000 nM.
Regarding `O=C(Nc1ccc(NC(=O)c2[nH]cnc2C(=O)NCc2ccccc2)cc1)c1ccc(F)cc1Cl` [Example 18, N^4-benzyl-N^5-{4-[(2-chloro-4-fluorobenzoyl)amino]phenyl}-1H-imidazole-4,5-dicarboxamide], the values for the IC50 (in experiment [1] (setting [3]); against TNKS1 (Table 1); at TNKS1 (first table)) were at least 50000 nM, 420 nM and 420 nM, respectively.
Regarding `CNC(=O)c1nc[nH]c1C(=O)Nc1ccc(NC(=O)c2ccccc2C)cc1` [Example 19, N^4-methyl-N^5-{4-[(2-methylbenzoyl)amino]phenyl}-1H-imidazole-4,5-dicarboxamide], the IC50 in experiment [1] (setting [2]) was found to be 26500 nM; in experiment [1] (setting [3]) it was 11000 nM; on TNKS1 (Table 1), 1700 nM; at TNKS1 (first table), 1700 nM.
Turning to `CNC(=O)c1nc[nH]c1C(=O)Nc1ccc(NC(=O)c2ccc(F)cc2)cc1` [Example 20, N^5-{4-[(4-fluorobenzoyl)amino]phenyl}-N^4-methyl-1H-imidazole-4,5-dicarboxamide], the IC50 was 40500 nM in experiment [1] (setting [2]), 31000 nM in experiment [1] (setting [3]), 1700 nM on TNKS1 (Table 1) and 1700 nM against TNKS1 (first table).
Take `CNC(=O)c1nc[nH]c1C(=O)Nc1ccc(NC(=O)c2c(C)cc(F)cc2C)cc1` [Example 23, N^5-{4-[(4-fluoro-2,6-dimethylbenzoyl)amino]phenyl}-N^4-methyl-1H-imidazole-4,5-dicarboxamide]: the IC50 in experiment [1] (setting [3]) is at least 50000 nM; at TNKS1 (Table 1) it was 770 nM; at TNKS1 (first table), 770 nM.
As for `CN(C)C(=O)c1nc[nH]c1C(=O)Nc1ccc(NC(=O)c2ccc(F)cc2Cl)cc1` [Example 24, N^5-{4-[(2-chloro-4-fluorobenzoyl)amino]phenyl}-N^4,N^4-dimethyl-1H-imidazole-4,5-dicarboxamide], the values for the IC50 (in experiment [1] (setting [3]); on TNKS1 (Table 1); against TNKS1 (first table)) were at least 50000 nM, 280 nM and 280 nM, respectively.
`CNC(=O)c1nc[nH]c1C(=O)Nc1ccc(NC(=O)c2ccc(OCCN(C)C)cc2Cl)cc1` [Example 25, N^5-[4-({2-chloro-4-[2-(dimethylamino)ethoxy]benzoyl}amino)phenyl]-N^4-methyl-1H-imidazole-4,5-dicarboxamide]: the IC50 in experiment [1] (setting [2]) is 34000 nM; in experiment [1] (setting [3]) it was 34000 nM; against TNKS1 (Table 1), 70 nM; against TNKS1 (first table), 70 nM.
